Assay results taken from ChEMBL document CHEMBL1201862, “PubChem BioAssay data set” (2004).
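Five compound concentrations were applied to cells in 96-well plates for 48 hours; endpoints were derived by simple linear interpolation of the resulting dose-response curve. GI50 = concentration required for 50% inhibition of growth.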 The source made the active and inactive calls. No stated cut-off is given here; in the data, active = GI50 up to about 1.1 µM and inactive = higher.

Key:
Experiment in all cases: NCI anticancer screen, dose series, 48 h
[1] = tested on: SK-MEL-28
[2] = tested on: A498
[3] = tested on: NCI-H460
[4] = tested on: OVCAR-4
[5] = tested on: HCT-116
[6] = tested on: IGROV-1
[7] = tested on: PC-3
[8] = tested on: SK-MEL-5
[9] = tested on: ACHN
[10] = tested on: HL-60
[11] = tested on: NCI-H23
[12] = tested on: NCI-H522
[13] = tested on: TK-10
[14] = tested on: K562
[15] = tested on: RPMI-8226
[16] = tested on: SW-620
[17] = tested on: SN12C
[18] = tested on: LOX IMVI
[19] = tested on: CAKI-1
[20] = tested on: MDA-MB-231

Compound: N=C(N)SCCCN
- GI50 [1]: 28.2 µM (inactive)
- GI50 [2]: 32.1 µM (inactive)
- GI50 [3]: 4.13 µM (inactive)
- GI50 [4]: 6.5 µM (inactive)
- GI50 [5]: 3.86 µM (inactive)
- GI50 [6]: 3.83 µM (inactive)
- GI50 [7]: 15.6 µM (inactive)
- GI50 [8]: 15 µM (inactive)
- GI50 [9]: 4.29 µM (inactive)
- GI50 [10]: 1.87 µM (inactive)
- GI50 [11]: 6.1 µM (inactive)
- GI50 [12]: 5.41 µM (inactive)
- GI50 [13]: 3.65 µM (inactive)
- GI50 [14]: 6.03 µM (inactive)
- GI50 [15]: 18.5 µM (inactive)
- GI50 [16]: 26.4 µM (inactive)
- GI50 [17]: 25.2 µM (inactive)
- GI50 [18]: 3.3 µM (inactive)
- GI50 [19]: 4.32 µM (inactive)
- GI50 [20]: 3.3 µM (inactive)

Compound: C=CCC(C(=O)O)c1ccccc1 (centres undefined)
- GI50 [1]: > 100 µM (inactive)
- GI50 [2]: > 100 µM (inactive)
- GI50 [3]: > 100 µM (inactive)
- GI50 [4]: > 100 µM (inactive)
- GI50 [5]: > 100 µM (inactive)
- GI50 [6]: > 100 µM (inactive)
- GI50 [7]: > 100 µM (inactive)
- GI50 [8]: > 100 µM (inactive)
- GI50 [9]: > 100 µM (inactive)
- GI50 [10]: > 100 µM (inactive)
- GI50 [11]: > 100 µM (inactive)
- GI50 [12]: > 100 µM (inactive)
- GI50 [13]: > 100 µM (inactive)
- GI50 [14]: > 100 µM (inactive)
- GI50 [15]: > 100 µM (inactive)
- GI50 [16]: > 100 µM (inactive)
- GI50 [17]: > 100 µM (inactive)
- GI50 [18]: > 100 µM (inactive)
- GI50 [19]: > 100 µM (inactive)
- GI50 [20]: > 100 µM (inactive)

Compound: O=[N+]([O-])C(/C=C(\Cl)[N+](=O)[O-])=C(Nc1ccccc1)Nc1ccccc1
- GI50 [1]: 9.86 µM (inactive)
- GI50 [2]: 17.9 µM (inactive)
- GI50 [3]: 16.4 µM (inactive)
- GI50 [4]: 6.76 µM (inactive)
- GI50 [5]: 1.98 µM (inactive)
- GI50 [6]: 17.2 µM (inactive)
- GI50 [7]: 14.6 µM (inactive)
- GI50 [8]: 13.3 µM (inactive)
- GI50 [9]: 13.2 µM (inactive)
- GI50 [10]: 2.59 µM (inactive)
- GI50 [11]: 7.96 µM (inactive)
- GI50 [12]: 2.21 µM (inactive)
- GI50 [13]: 12.8 µM (inactive)
- GI50 [14]: 2.94 µM (inactive)
- GI50 [15]: 2.28 µM (inactive)
- GI50 [16]: 2.79 µM (inactive)
- GI50 [17]: 15.5 µM (inactive)
- GI50 [18]: 16 µM (inactive)
- GI50 [19]: 13.7 µM (inactive)
- GI50 [20]: 10.7 µM (inactive)

Compound: O=C(CC(=O)Nc1ccccc1)NNC(Sc1ccccc1)c1cc(/N=N/c2ccc(Br)cc2)ccc1O (centres undefined)
- GI50 [1]: 2.92 µM (inactive)
- GI50 [2]: 1.91 µM (inactive)
- GI50 [3]: 0.773 µM (active)
- GI50 [4]: 1.56 µM (inactive)
- GI50 [5]: 0.448 µM (active)
- GI50 [6]: 5.07 µM (inactive)
- GI50 [7]: 1.45 µM (inactive)
- GI50 [8]: 1.06 µM (active)
- GI50 [9]: 2.47 µM (inactive)
- GI50 [10]: 0.356 µM (active)
- GI50 [11]: 2.83 µM (inactive)
- GI50 [12]: 4.81 µM (inactive)
- GI50 [13]: 1.45 µM (inactive)
- GI50 [14]: 2.54 µM (inactive)
- GI50 [15]: 4.2 µM (inactive)
- GI50 [16]: 0.931 µM (active)
- GI50 [17]: 1.89 µM (inactive)
- GI50 [18]: 2.49 µM (inactive)
- GI50 [19]: 4.82 µM (inactive)
- GI50 [20]: 2.24 µM (inactive)

Compound: N#Cc1[nH]c(=O)n(-c2ccc([N+](=O)[O-])cc2)c1N
- GI50 [1]: > 10 µM (inactive)
- GI50 [2]: > 10 µM (inactive)
- GI50 [3]: 7.64 µM (inactive)
- GI50 [4]: > 10 µM (inactive)
- GI50 [5]: > 10 µM (inactive)
- GI50 [6]: > 10 µM (inactive)
- GI50 [7]: > 10 µM (inactive)
- GI50 [8]: > 10 µM (inactive)
- GI50 [9]: > 10 µM (inactive)
- GI50 [10]: > 10 µM (inactive)
- GI50 [11]: > 10 µM (inactive)
- GI50 [12]: > 10 µM (inactive)
- GI50 [13]: > 10 µM (inactive)
- GI50 [14]: > 10 µM (inactive)
- GI50 [15]: > 10 µM (inactive)
- GI50 [16]: > 10 µM (inactive)
- GI50 [17]: > 10 µM (inactive)
- GI50 [18]: > 10 µM (inactive)
- GI50 [20]: > 10 µM (inactive)

Compound: Cc1ccc2c(c1)NC(=O)CCSSCCC(=O)N2
- GI50 [1]: > 100 µM (inactive)
- GI50 [2]: > 100 µM (inactive)
- GI50 [3]: > 100 µM (inactive)
- GI50 [4]: > 100 µM (inactive)
- GI50 [5]: > 100 µM (inactive)
- GI50 [6]: > 100 µM (inactive)
- GI50 [7]: > 100 µM (inactive)
- GI50 [8]: > 100 µM (inactive)
- GI50 [9]: > 100 µM (inactive)
- GI50 [10]: > 100 µM (inactive)
- GI50 [11]: > 100 µM (inactive)
- GI50 [12]: > 100 µM (inactive)
- GI50 [13]: > 100 µM (inactive)
- GI50 [14]: > 100 µM (inactive)
- GI50 [15]: > 100 µM (inactive)
- GI50 [16]: > 100 µM (inactive)
- GI50 [17]: > 100 µM (inactive)
- GI50 [18]: > 100 µM (inactive)
- GI50 [19]: > 100 µM (inactive)
- GI50 [20]: > 100 µM (inactive)

Compound: O=C1/C(=C\c2ccccc2)C(NC2CCCCC2)c2ccccc21 (centres undefined)
- GI50 [1]: 2.54 µM (inactive)
- GI50 [2]: 18.6 µM (inactive)
- GI50 [3]: 2.71 µM (inactive)
- GI50 [4]: 1.79 µM (inactive)
- GI50 [5]: 0.959 µM (active)
- GI50 [6]: 2.99 µM (inactive)
- GI50 [7]: 1.78 µM (inactive)
- GI50 [8]: 2.37 µM (inactive)
- GI50 [9]: 0.923 µM (active)
- GI50 [10]: 0.883 µM (active)
- GI50 [11]: 0.76 µM (active)
- GI50 [12]: 0.578 µM (active)
- GI50 [13]: 1.29 µM (inactive)
- GI50 [14]: 0.46 µM (active)
- GI50 [15]: 0.387 µM (active)
- GI50 [16]: 0.444 µM (active)
- GI50 [17]: 1.55 µM (inactive)
- GI50 [18]: 1.66 µM (inactive)
- GI50 [19]: 1.48 µM (inactive)
- GI50 [20]: 2.23 µM (inactive)
